In patent US8372848B2, “Melanin-concentrating hormone receptor antagonists and methods of use” (Mixture Sciences, Inc., priority 2004, dated 2013):

What was measured:
[1] = tested on: rats; test: MCH-induced food intake after icv administration; type: in vivo, rat
Method: To determine inhibitory effects of TPI 1361-17 on MCH-induced food intake, rats were habituated to a wire bottom cage for more than 3 weeks prior to the experiment. Experiments were carried out from 6 a.m. to 7 a.m. when rats were satiated. […] On the other hand, five nmol of TPI 1361-17 suppressed cumulative food intake by 75% even at 4h (FIG. 5B).
To determine the effects of TPI 1361-17 on MCH-induced food intake, rats were randomly divided into three groups: 1) TPI 1361-17 (dissolved in DMSO) and 2 nmol of MCH; 2) MCH 2 nmol, 3) ACSF. Each mixture contained a DMSO equivalent concentration to that of the antagonist solution (up to 5% (v/v)). Ten μl of each solution was administered into lateral ventricle for 2 minutes. The injections were done between 7:00-8:00 a.m., and food intake was monitored for 4 h after the injection.
For animal studies, adult male Sprague-Dawley rats weighing 200-300g were obtained from Charles River Laboratories (Wilmington, Mass.), bearing a 23-gauge stainless steel cannula placed into the right lateral ventricle. Rats were housed individually and maintained on a 12 h light-dark cycle (6:00 am-6:00 pm light) with free access to tap water and rat chaw (PROLAB RMH 2500, containing 23.0% protein, 4.5% fat, gross energy 4.5 kcal/g. PMI nutrition international, LLC. Brentwood, Mo.). Prior to all studies, rats were handled and habituated for 7 days, and 10 μl of artificial cerebrospinal fluid (ACSF: NaCl 124, KCl 5, CaCl2 2.4 MgSO4 2, KH2PO4 1.25, NaHCO3 26 and glucose 10, in mM) was injected through the cannula to minimize stress effects at the time of the experiment. Cannula placement was confirmed in all animals by evaluating the response to 50 ng of angiotensin II. Only animals drinking more than 5 ml of water in 1 h were used in feeding studies.

[2] = tested on: rats; test: Motor activity in rats, Example VI; type: in vivo, rat; conditions: 10 nM i.c.v.
Method: Sprague Dawley rats were randomly divided into two groups (Group I and Group II) of eight (8) rats each. The rats in Group I (n=8) received 0.9% saline by i.c.v. injection. The rats in Group II (n−8) received 10 nM TPI 1361-17 (Formula IV) by i.c.v. injection. […] Once each day thereafter, for a total of ______ days, the rats were taken into a test room, allowed to acclimatize for ______ minutes, then placed in four identical chambers (43 cm×43 cm×30.5 cm) that were connected to a common interface and computer (MED Associates, Inc., St. Albans, Vt.). Horizontal movement of the rats was monitored by 16 photobeams per side evenly spaced along each wall of two adjacent sides of each test chamber.

[3] = target: T1, rat MCH1R (Rattus norvegicus, UniProt P97639); test: MCH-induced Ca2+ mobilization (FLIPR) in HEK 293T cells expressing rat MCH1R; type: cell-based
T1 sequence (P97639 whole entry): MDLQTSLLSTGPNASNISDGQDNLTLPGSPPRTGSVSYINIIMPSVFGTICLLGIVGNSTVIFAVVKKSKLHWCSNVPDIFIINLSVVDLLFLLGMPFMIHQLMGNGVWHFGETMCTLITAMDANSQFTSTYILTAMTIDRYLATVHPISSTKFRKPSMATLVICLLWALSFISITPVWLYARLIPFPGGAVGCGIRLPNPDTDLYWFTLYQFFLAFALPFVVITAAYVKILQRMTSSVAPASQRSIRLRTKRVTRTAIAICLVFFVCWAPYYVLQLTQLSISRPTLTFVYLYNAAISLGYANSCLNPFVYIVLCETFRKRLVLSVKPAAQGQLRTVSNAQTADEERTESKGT

[4] = target: T1, rat MCH1R; test: [125I] MCH binding to membrane fractions of MCH1R expressing HEK-293T
Method: Cell pellet was homogenized with ice-cold 50 mM Tris-HCl buffer (pH 7.4) containing 5 mM EDTA, and ultra-centrifuged twice at 48,000×g for 20 min at 4° C. The pellets were then suspended in 50 mM Tris-HCl (pH 7.4) buffer containing 5 mM EDTA and used as membrane fractions. […] The radioactivity retained in the filters was determined with a γ-counter. IC50 values calculated as described above are expressed as the mean +S.E.M. for three independent determinations. DNA was mixed with LipofectAMINE transfection reagents (Life Technologies, MD), and the mixture was diluted with Opti-MEM and added to 60-70% confluent HEK 293T cells plated on 100-mm dishes. The transfected cells were cultured in DMEM containing 10% FBS.

[5] = target: T2, orexin 1R (Homo sapiens, UniProt O43613); test: Selectivity versus orexin 1R; type: cell-based
T2 sequence (O43613 1-425): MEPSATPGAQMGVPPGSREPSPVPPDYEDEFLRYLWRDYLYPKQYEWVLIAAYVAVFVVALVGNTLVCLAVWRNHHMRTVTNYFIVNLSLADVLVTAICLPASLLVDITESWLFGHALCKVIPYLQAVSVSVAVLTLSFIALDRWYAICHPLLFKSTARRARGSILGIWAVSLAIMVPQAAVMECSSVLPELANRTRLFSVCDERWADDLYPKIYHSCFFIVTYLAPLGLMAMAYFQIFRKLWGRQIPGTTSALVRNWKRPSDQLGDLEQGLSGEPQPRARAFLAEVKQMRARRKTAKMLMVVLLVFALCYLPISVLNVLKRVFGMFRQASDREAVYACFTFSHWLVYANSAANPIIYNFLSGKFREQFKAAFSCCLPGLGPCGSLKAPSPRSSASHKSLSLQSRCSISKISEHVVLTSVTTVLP

Motor activity versus control (distance traveled, time resting, time ambulatory, ambulatory counts, time stereotypic, stereotypic counts) [2]: no significant differences
IC50 ([3]; 1 nM MCH, HEK 293T cells expressing rat MCH1R): 6.1 nM
Slope of Schild regression ([3]; r2=0.975): 1.085±0.010
Kb ([3]; read-out: Kb predicted from Schild regression): 0.37 nM
pA2 (Schild regression) ([3]; shift of MCH dose response curves): 9.43
Change of basal Ca2+ level by the compound itself ([3]; without MCH): did not change the basal Ca^2+ level
Displacement of [125I] MCH binding to rat MCH1R [4]: completely displaced
IC50 ([4]; mean ±S.E.M., 0.1 nM radioligand, read-out: IC50 for displacement of [125I] MCH binding): 140 ± 34.6 nM
Selectivity for MCH1R compared with orexin 1R [5]: more than 1,000 fold
Compound: C[C@@H](CNCc1ccccc1)N1C[C@H](CCCNC(=N)N)N(CCc2cccc(F)c2)C1=S [TPI 1361-17, N-(3-{(4S)-1-[(1S)-2-(benzylamino)-1-methylethyl]-3-[2-(3-fluorophenyl)ethyl]-2-thioxoimidazolidin-4-yl}propyl)guanidine]
MCH-induced food intake at the low dose ([1]; 1 nmol icv with 2 nmol MCH, reversed over the next two hours): decreased MCH-induced food intake for 1 h and 2h
Suppression of cumulative MCH-induced food intake ([1]; 5 nmol icv with 2 nmol MCH, at 4h): 75%
Reduction of MCH-induced food intake, maximal ([1]; dose dependent, icv, SD rats, beginning of light phase): up to 75%
Duration of the effect on MCH-induced food intake ([1]; icv): over 4 h
